We go through eight molecules from PubChem BioAssay AID434975 (The Scripps Research Institute Molecular Screening Center, 2010).

Activity calls are given as the source filed them.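 How the source made its calls: active means inhibition zone diameter above 0 mm; inactive means zone diameter of 0 mm or less.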

The test system of this test is Candida albicans ATCC 90028, disc diffusion zone, 24 h. Nature of the test: Candida albicans growth inhibition, late-stage follow-up, TPT1 inhibitor project, disc diffusion, zone diameter (AID 434975). The following applies: at 10 mM; stronger effect = higher value.
With `O=c1oc2c(O)c(O)cc3c(=O)oc4c(O)c(O)cc1c4c23`, the inhibition zone diameter was 0 mm (inactive). Take `Cc1ccc(N2C(=O)NC(=O)/C(=C\c3ccc([N+](=O)[O-])o3)C2=O)cc1`: the inhibition zone diameter is 12.6 mm.

For `Cc1ccccc1N1C(=O)/C(=C/c2ccco2)C(=O)NC1=S`, the inhibition zone diameter is 0 mm (inactive). As for `Cc1cc(C)n(Cc2ccc(C(=O)NN=Cc3ccc(-c4ccc([N+](=O)[O-])cc4)o3)o2)n1`, the figure is 0 mm (inactive); as for `COc1ccc(OC)c(N2C(=O)/C(=C/c3ccco3)C(=O)NC2=S)c1`, 0 mm (inactive). In the case of `OC(Cn1cncn1)(Cn1cncn1)c1ccc(F)cc1F`, the inhibition zone diameter is 38 mm. As for `NC(=O)c1cc[n+](CC2=C(C(=O)O)N3C(=O)[C@@H](NC(=O)C(c4ccccc4)S(=O)(=O)O)[C@H]3SC2)cc1` (stereo partly drawn), the figure is 0 mm (inactive); as for `CC1=C(C#N)C(=O)N(C2CCS(=O)(=O)C2)C(=O)/C1=C\c1ccco1` (stereo not drawn), 0 mm (inactive).
